# Experimental data taken from patent US20190375708A1 (VenatoRx Pharmaceuticals, Inc., priority 2018, published 2019).
# Key:
# [1] = tested on: HBV replication in HepAD38 cells; experiment: Anti-HBV replication assay in HepAD38 cells (QPCR of extracellular HBV DNA); assay type: cell-based, HBV (genotype D, serotype ayw); settings: Hepatitis B virus, 168 h, 7 days incubation, extracellular HBV DNA by QPCR, read-out: Anti-HBV EC50
# Procedure, shortened: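 EC50 values reflect 50% reduction of extracellular HBV DNA, measured by QPCR after 7-day treatment of tetracycline-deprived HepAD38 cells with compound […].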
# [2] = In vitro cytotoxicity assay (MTT cell viability) in HepG2 cells; assay type: cell-based, human; settings: human
# Procedure, shortened: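 Using MTT conversion as the viability measure, HepG2 cells were incubated with compounds for 7 days (30 μM to 1.0 nM). Absorbance at 492 nm was normalized to vehicle and fitted to give CC50.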
SMILES,EC50 [1] [µM],CC50 at 7 days [2] [µM]
"Cc1c(C(=O)Nc2ccnc(Cl)c2)c(C)n(C)c1C(=O)C(=O)NC1(C)CCOCC1 [Example 326, N-(2-chloropyridin-4-yl)-1,2,4-trimethyl-5-(2-((4-methyltetrahydro-2H-pyran-4-yl)amino)-2-oxoacetyl)-1H-pyrrole-3-carboxamide]",< 0.05,> 30
"Cc1noc([C@@H](C)NC(=O)C(=O)c2c(Cl)c(C(=O)Nc3ccc(F)c(Cl)c3)c3n2CCCC3)n1 [Example 524, (R)-2-chloro-N-(3-chloro-4-fluorophenyl)-3-(2-((1-(3-methyl-1,2,4-oxadiazol-5-yl)ethyl)amino)-2-oxoacetyl)-5,6,7,8-tetrahydroindolizine-1-carboxamide]",0.05 to 0.499,5 to 30
"Cc1cc(NC(=O)c2c(Cl)c(C(=O)C(=O)NC3(CO)CC(F)(F)C3)n3c2CCCC3)ccc1F [Example 496, 2-chloro-3-(2-((3,3-difluoro-1-(hydroxymethyl)cyclobutyl)amino)-2-oxoacetyl)-N-(4-fluoro-3-methylphenyl)-5,6,7,8-tetrahydroindolizine-1-carboxamide]",< 0.05,5 to 30
"Cc1c(C(=O)Nc2cc(F)c(F)c(F)c2)c(C)n(C)c1C(=O)C(=O)Nc1cccnc1 [Example 320, 1,2,4-trimethyl-5-(2-oxo-2-(pyridin-3-ylamino)acetyl)-N-(3,4,5-trifluorophenyl)-1H-pyrrole-3-carboxamide]",< 0.05,> 30
"Cc1cc(NC(=O)c2c(C)c(C(=O)C(=O)Nc3ccc(N4CCOCC4)nc3)n(C)c2C)ccc1F [Example 266, N-(4-fluoro-3-methylphenyl)-1,2,4-trimethyl-5-(2-((6-morpholinopyridin-3-yl)amino)-2-oxoacetyl)-1H-pyrrol-3-carboxamide]",0.05 to 0.499,> 30
"Cc1noc([C@@H](NC(=O)C(=O)c2c(Cl)c(C(=O)Nc3ccc(F)c(C)c3)c3n2CCCC3)C(C)C)n1 [Example 493, (S)-2-chloro-N-(4-fluoro-3-methylphenyl)-3-(2-((2-methyl-1-(3-methyl-1,2,4-oxadiazol-5-yl)propyl)amino)-2-oxoacetyl)-5,6,7,8-tetrahydroindolizine-1-carboxamide]",< 0.05,5 to 30
"Cc1cc(NC(=O)c2c(C)c(C(=O)C(=O)N[C@H](C)CO)n(C)c2C)ccc1F [Example 219, (R)-N-(4-fluoro-3-methylphenyl)-5-(2-((1-hydroxypropan-2-yl)amino)-2-oxoacetyl)-1,2,4-trimethyl-1H-pyrrole-3-carboxamide]",< 0.05,> 30
"Cc1cc(NC(=O)c2c(C)c(C(=O)C(=O)NCc3csc(N)n3)n(CCF)c2C)ccc1F [Example 229, 5-(2-(((2-aminothiazol-4-yl)methyl)amino)-2-oxoacetyl)-N-(4-fluoro-3-methylphenyl)-1-(2-fluoroethyl)-2,4-dimethyl-1H-pyrrole-3-carboxamide]",< 0.05,> 30
"Cc1c(C(=O)Nc2ccc(F)c(F)c2)c(C)n(C)c1C(=O)C(=O)Nc1ccc(F)nc1 [Example 297, N-(3,4-difluorophenyl)-5-(2-((6-fluoropyridin-3-yl)amino)-2-oxoacetyl)-1,2,4-trimethyl-1H-pyrrole-3-carboxamide]",< 0.05,5 to 30
"Cc1cc(NC(=O)c2c(C)c(C(=O)C(=O)N[C@@H](C(=O)O)[C@@H](C)O)n(C)c2C)ccc1F [Example 52, (2-(4-((4-fluoro-3-methylphenyl)carbamoyl)-1,3,5-trimethyl-1H-pyrrol-2-yl)-2-oxoacetyl)-D-allothreonine]",> 1,> 30
"Cc1cc(NC(=O)c2c(C)c(C(=O)C(=O)NC[C@@H](C)O)n(C)c2C)ccc1F [Example 220, (R)-N-(4-ffluoro-3-methylphenyl)-5-(2-((2-hydroxypropyl)amino)-2-oxoacetyl)-1,2,4-trimethyl-1H-pyrrole-3-carboxamide]",< 0.05,5 to 30
"O=C(NC1(CO)CC1)C(=O)c1c(Cl)c(C(=O)Nc2ccc(F)c(Cl)c2)c2n1CCC2 [Example 566, 6-chloro-N-(3-chloro-4-fluorophenyl)-5-(2-((1-(hydroxymethyl)cyclopropyl)amino)-2-oxoacetyl)-2,3-dihydro-1H-pyrrolizine-7-carboxamide]",< 0.05,5 to 30
"Cc1cc(NC(=O)c2c(C)c(C(=O)C(=O)N[C@H](C)C(F)(F)F)n(C)c2C)cnc1F [Example 165, (R)-N-(6-fluoro-5-methylpyridin-3-yl)-1,2,4-trimethyl-5-(2-oxo-2-((1,1,1-trifluoropropan-2-yl)amino)acetyl)-1H-pyrrole-3-carboxamide]",< 0.05,> 30
"Cc1cc(NC(=O)c2c(C)c(C(=O)C(=O)NC3(C(=O)N[C@H](C)C(F)(F)F)CCOCC3)n(C)c2C)ccc1F [Example 605, (R)-N-(4-fluoro-3-methylphenyl)-1,2,4-trimethyl-5-(2-oxo-2-((4-((1,1,1-trifluoropropan-2-yl)carbamoyl)tetrahydro-2H-pyran-4-yl)amino)acetyl)-1H-pyrrole-3-carboxamide]",< 0.05,> 30
"Cc1c(C(=O)Nc2ccnc(Cl)c2)c(C)n(C)c1C(=O)C(=O)NC(C)(C)CN1CCOCC1 [Example 331, N-(2-chloropyridin-4-yl)-1,2,4-trimethyl-5-(2-((2-methyl-1-morpholinopropan-2-yl)amino)-2-oxoacetyl)-1H-pyrrole-3-carboxamide]",< 0.05,> 30
"Cc1c(C(=O)Nc2ccc(F)c(Cl)c2)c2n(c1C(=O)C(=O)NCc1cnc(N)s1)CCCC2 [Example 448, 3-(2-(((2-aminothiazol-5-yl)methyl)amino)-2-oxoacetyl)-N-(3-chloro-4-fluorophenyl)-2-methyl-5,6,7,8-tetrahydroindolizine-1-carboxamide]",< 0.05,5 to 30
"Cc1cc(NC(=O)c2c(C)c(C(=O)C(=O)N[C@@H]3CCc4nc(N)sc4C3)n(C)c2C)ccc1F [Example 76, (R)-5-(2-((2-amino-4,5,6,7-tetrahydrobenzo[d]thiazol-6-yl)amino)-2-oxoacetyl)-N-(4-fluoro-3-methylphenyl)-1,2,4-trimethyl-1H-pyrrole-3-carboxamide]",< 0.05,5 to 30
"Cc1cnc(C(NC(=O)C(=O)c2c(C)c(C(=O)Nc3ccc(F)c(C)c3)c(C)n2C)C2CC2)s1 (stereo not shown) [Example 83, 5-(2-((cyclopropyl(5-methylthiazol-2-yl)methyl)amino)-2-oxoacetyl)-N-(4-fluoro-3-methylphenyl)-1,2,4-trimethyl-1H-pyrrole-3-carboxamide]",< 0.05,5 to 30
"Cc1cc(NC(=O)c2c(Cl)c(C(=O)C(=O)NCC(C)(C)CO)n3c2CCCC3)ccc1F [Example 498, 2-chloro-N-(4-fluoro-3-methylphenyl)-3-(2-((3-hydroxy-2,2-dimethylpropyl)amino)-2-oxoacetyl)-5,6,7,8-tetrahydroindolizine-1-carboxamide]",0.05 to 0.499,> 30
"Cc1cc(NC(=O)c2c(C)c(C(=O)C(=O)N[C@H]3CC[C@@H](O)C3)n(C)c2C)ccc1F [Example 245, N-(4-fluoro-3-methylphenyl)-5-(2-(((1S,3R)-3-hydroxycyclopentyl)amino)-2-oxoacetyl)-1,2,4-trimethyl-1H-pyrrole-3-carboxamide]",< 0.05,> 30
"Cc1cc(NC(=O)c2c(Cl)c(C(=O)C(=O)NC3(CO)CC3)n3c2CCC3)ccc1F [Example 542, 6-chloro-N-(4-fluoro-3-methylphenyl)-5-(2-((1-(hydroxymethyl)cyclopropyl)amino)-2-oxoacetyl)-2,3-dihydro-1H-pyrrolizine-7-carboxamide]",< 0.05,> 30
"Cc1cc(NC(=O)c2c(C)c(C(=O)C(=O)NC(C)(C)C(F)(F)F)n(CCF)c2C)cnc1F [Example 224, N-(6-ffluoro-5-methylpyridin-3-yl)-1-(2-fluoroethyl)-2,4-dimethyl-5-(2-oxo-2-((1,1,1-trifluoro-2-methylpropan-2-yl)amino)acetyl)-1H-pyrrole-3-carboxamide]",0.05 to 0.499,> 30
"Cc1cc(NC(=O)c2c(C)c(C(=O)C(=O)NC3(CO)CC(F)(F)C3)n(CCF)c2C)ccc1F [Example 179, 5-(2-((3,3-difluoro-1-(hydroxymethyl)cyclobutyl)amino)-2-oxoacetyl)-N-(4-fluoro-33-methylphenyl)-1-(2-fluoroethyl)-2,4-dimethyl-1H-pyrrole-3-carboxamide]",< 0.05,5 to 30
"Cc1c(C(=O)Nc2ccc(F)nc2)c(C)n(C)c1C(=O)C(=O)NC1(C)CCOCC1 [Example 325, N-(6-fluoropyridin-3-yl)-1,2,4-trimethyl-5-(2-((4-methyltetrahydro-2H-pyran-4-yl)amino)-2-oxoacetyl)-1H-pyrrole-3-carboxamide]",0.05 to 0.499,> 30
Cc1cc(NC(=O)c2cc(C(=O)C(=O)NC3(C(F)(F)F)CCC3)n3c2CCCC3)ccc1F [Example 403],0.05 to 0.499,> 30
"Cc1cc(Cl)cc(NC(=O)c2c(C)c(C(=O)C(=O)N[C@H](C)C(F)(F)F)n(C)c2C)c1 [Example 686, (R)-N-(3-chloro-5-methylphenyl)-1,2,4-trimethyl-5-(2-oxo-2-((1,1,1-trifluoropropan-2-yl)amino)acetyl)-1H-pyrrole-3-carboxamide]",< 0.05,0.5 to 4.99
